Measurements: patent publication US7115623B2, “PDE IV inhibitors” (Aska Pharmaceuticals Co., Ltd., priority 2001, dated 2006)

What was measured:
[1] = tested on: PDE IV isozymes separated from U937 culture cells; assay: PDE IV inhibition ([3H]-cAMP hydrolysis); assay type: biochemical; conditions: cAMP 1 μM as substrate, 30° C., 20 minutes, Probit method
Protocol: PDE IV isozymes as used herein were separated from U937 culture cells by using an anion exchange chromatography. Type IV PDE isozyme was admixed with ethylene glycol (EG) to adjust the final EG concentration to 30%, then stored at −20° C. and diluted when used. The enzymatic activity for PDE IV was measured using cAMP as a substrate.
Each test compound was dissolved in DMSO to adjust the final concentration to 1% (2.5 μl/tube). Incubation buffer solution (pH7.5): • Tris-HCl (50 mM), magnesium chloride (6 mM), dithiothreitol (2.5 mM), 5-nucleotidase (4 μg/ml), bovine serum albumin (0.23 mg/ml), and cAMP (1 μM).
A mixture of the aforementioned test compound solution and the buffer solution was incubated at 30° C. for 20 minutes. The reaction was quenched by admixing with 1 ml of anion exchange resin slurry (AG1-X8, 200–400 meshes, chloride form; Bio-Rad) to absorb unreacted substrates. After the reaction stopped, the mixture was centrifuged at 800×g for 10 minutes, and the resulting supernatant was collected with vials in 250 μl aliquots. To each vial was added 5 ml of ACS-II (scintillator, Amersham). The radioactivity was measured with a liquid scintillator counter for [^3H]-adenosine and set as the PDE IV activity.

[2] = tested on: actively sensitized guinea pigs; assay: Inhibition of antigen-induced immediate asthmatic response (airway resistance, Konzett-Rossler method); assay type: in vivo, Male Hartley outbred guinea pigs; conditions: Cavia porcellus; orally, 60 minutes prior to antigen-challenge, ovalbumin-sensitized guinea pigs, Probit method
Protocol: Male Hartley outbred guinea pigs were sensitized by administering intraperitoneally physiological saline (0.5 ml) containing ovalbumin (1 mg, antigen) and 5×10^9 inactivated Bordetella pertussis dead cells (adjuvant). Eleven to thirteen days after the first sensitization, 0.05 ml of an ovalbumin solution (1 mg/ml) (ovalbumin is dissolved in physiological saline) was administered to the lateroabdominal region of each guinea pig intracutaneously. An establishment of sensitization was checked relying on cutaneous reaction. Only guinea pigs wherein significant reddening responses occurred 5 to 10 minutes later were employed in the next measurement test for airway resistance.
The guinea pigs (3 animals per group) actively sensitized in the above step (1) were employed to measure for their airway pressure according to Konzett-Rossler method (Arch. Exp. Path. Pharmakol., 195, 71 (1940)).
Thirteen days after the final sensitization, guinea pigs fasted overnight, and were on the next day anesthetized with a pentobarbital solution (30 mg/1.2 ml/kg, dissolved in physiological saline, intraperitoneal administration). After the guinea pigs were fixed in a supine position, their trachea was incised followed by insertion with one port of a 4-port cannula. Among the remaining 3 ports, 2 ports were connected to an artificial respirator (Model 683, Harvard). The animals were ventilated with 10 ml/kg of air per ventilation at a rate of 60 beats/min via the artificial respirator from the cannula. One port remainder was connected to a respiratory amplifier (AR-601G, Nihon Kohden, Japan) via an airflow resistance tube (TV-241T, Nihon Kohden, Japan) and a differential pressure transducer (TP-602T, Nihon Kohden, Japan) connected with a control box (RY-111S, Nihon Kohden, Japan). From a catheter inserted into a left carotid artery, blood pressures were monitored with a blood pressure measurement unit (AP641G, NEC Corp., Japan) via a blood pressure transducer (TP-300T, Nihon Kohden, Japan), and heart rates were recorded on a thermal recorder (WT-685G, Nihon Kohden, Japan), relying on blood pressure pulse waves after being led to a cardiograph unit (AT601G, Nihon Kohden, Japan).
After airway pressure became stable, an ovalbumin solution. (1 mg/ml, dissolved in physiological saline) was administered at a dose of 1 ml/kg via a tube with which the right jugular vein of guinea pigs was cannulated.
Each test compound was suspended in 0.5% CMC—Na solution and administered orally with an oral sound at a dose of 0.03 to 20 mg/2 ml/kg 60 minutes prior to the antigen-challenge. Control groups received only 0.5% CMC—Na solution in an equivalent amount. The pentobarbital-anesthetization and tracheal incision were conducted 30 minutes prior to the antigen-challenge.
Each percent reduction of increase in airway resistance (each test compound-administered group versus control group) was calculated according to the equation given below. ED50 was obtained by Probit method.

Male Marshall ferrets = assay: Emetic action; assay type: in vivo; conditions: oral, observed within 12 hours, dose = ED50 of Assay Example 2
Protocol: Male Marshall ferrets (each group consisting of 3 animals) as used herein fasted overnight. On the next day, a suspension of each test compound in 0.5% CMC—Na solution was administered orally to the animals. […] Next, each maximum tolerance dose against emesis was obtained. SB207499 was used for the reference compound in this assay.

TNF-α production = assay: Inhibition of TNF-α production in galactosamine- and LPS-stimulation; assay type: in vivo, C3H/HeN mice; conditions: Mus musculus; oral, 1 hour before i.v. galactosamine 800 mg/kg and LPS 5 μg/kg; serum TNF-α by ELISA 1 hour later
Protocol: A suspension of each test compound in 0.5% CMC—Na solution was administered orally to C3H/HeN mice at a dose of 0.10 to 10 mg/kg. One hour later, the animals received intravenously galactosamine at a dose of 800 mg/kg and LPS at a dose 5 μg/kg to raise the induction of TNF-α production. One hour later after the galactosamine- and LPS-administration, amounts of TNF-α in serum samples were measured by ELISA.

ICR mice = assay: Toxicology study; assay type: in vivo; conditions: oral 300 mg/10 ml/kg
Protocol: Each Compound (Example Nos. 7 and 8) was administered orally to ICR mice (7 animals per group) as a test compound. […] Each test compound was suspended in 0.5% CMC—Na solution and given orally to the animal at a dose of 300 mg/10 ml/kg.

Nc1cccc(-n2c(=O)c(CCCc3ccncc3)cc3cccnc32)c1 [Example No. 7, 1-(3-Aminophenyl)-3-[3-(pyridin-4-yl)propyl]-1,8-naphthyridin-2(1H)-one]
IC50 [1]: 0.23 µM | ED50 [2]: 1.1 mg/kg | Emetic actions at asthmatic response-inhibitory ED50 level (Male Marshall ferrets): no observation for emetic actions | ED50 (TNF-α production): 0.45 mg/kg | Body weight gain (ICR mice): No reduction of body weight gains was observed | Mortality (ICR mice): None of the animals were died | Other parameters (general health conditions) (ICR mice): no abnormality was observed
